# “Also recorded” adds a separate entry of the source. Read-outs that look alike come from different tables or passages of the source.
# Experiments:
# [1] = system: primary fetal rat osteoblasts; assay: Proliferation (cell number, [3H]-thymidine incorporation) of fetal rat osteoblast-like cells; format: cell-based
# Description: Osteoblast-Like Cell Culture. Osteoblasts were isolated from 20 day fetal rat calvariae as previously described (Cornish et al. (1999) American Journal of Physiology Endocrinology & Metabolism 277: E779-E783). Briefly, calvariae were excised and the frontal and parietal bones, free of suture and periosteal tissue, were collected. The calvariae were sequentially digested using collagenase and the cells from digests 3 and 4 were collected, pooled and washed. Cells were grown to confluence and then subcultured into 24 well plates. Cells were growth arrested in minimum essential medium (MEM)/0.1% bovine serum albumin for 24 h. Fresh media and experimental compounds were added for a further 24 h. Cells were pulsed with tritiated-thymidine two hours before the end of the experimental incubation. The effect of preptin on proliferation of fetal rat osteoblast-like cells was first assessed by the measurement of cell numbers. The effect of preptin on DNA synthesis in osteoblasts was then assessed by the measurement of [^3H]-thymidine incorporation into isolated fetal rat osteoblast-like cells. There were 6 wells in each group and each experiment was repeated 3 or 4 times.
# [2] = system: murine bone marrow cultures; assay: Osteoclastogenesis assay in murine bone marrow cultures (TRAP-positive multinucleated cells); format: cell-based, mouse; settings: various concentrations; 7 days; with 1α,25-dihydroxyvitamin D3; FIG. 4
# Description: The effects of preptin on the development of osteoclasts was also examined. To assess osteoclast development, bone marrow is obtained from the long bones of normal mice, aged 4-6 weeks and cultured. Non-adherent cells are removed and the cultures are grown in the presence of 1α,25-dihydroxyvitamin D3 throughout the experiment. The cultures were maintained for 7 days and the number of tartrate-resistant acid phosphatase-positive multinucleated cells was assessed. An osteoclastogenesis assay was performed with murine bone marrow cultures in the presence of various concentrations of rat preptin. The number of tartrate-resistant acid phosphatase (TRAP)-positive multinucleated cells was assessed (FIG. 4).
# [3] = system: sexually mature male mice; assay: Local subcutaneous injection over the hemicalvaria, histomorphometry; format: in vivo; settings: for Bone Area, Mean ± Std Error: twice daily s.c. over right hemicalvaria; for Bone Area, Mean ± Std Error / % Mineralizing Surface/Total Bone Surface, Mean ± Std Error: 5 days; for % Mineralizing Surface/Total Bone Surface, Mean ± Std Error: twice daily s.c.
# Description: Three groups of sexually mature male mice were given twice daily subcutaneous injections over the right hemicalvaria for 5 consecutive days. Two groups received one of 2 doses of preptin (0.825 μg or 8.25 μg per injection), and a further […] received vehicle. The animals were sacrificed 1 week following the last injection. Fluorochrome labels were injected subcutaneously at the base of the tail on days 1 (calcein), 5 (alizarin red) and 14 (calcein) to measure dynamic histomorphometric indices (such as, extent of mineralizing surface). Calvariae were excised, fixed in 10% neutral-buffered formalin, dehydrated and embedded in methylmethacrylate resin. Sections were cut, mounted on gelatin-coated slides, and histomorphometric indices measured using image analysis.
# [4] = system: murine neonatal calvarial organ culture; assay: Thymidine incorporation in murine neonatal calvarial organ culture; format: cell-based, mouse; settings: FIG. 3 (rat preptin, two concentrations)
# [5] = system: murine neonatal calavarial organ culture system; assay: Bone resorption in murine neonatal calvarial organ culture; format: cell-based, mouse; settings: data not shown
# [6] = system: primary rat osteoblasts; assay: TUNEL assay of apoptosis in serum-deprived primary rat osteoblasts; format: cell-based; settings: 10^−8 M; apoptosis induced by serum deprivation; 18 h; FIG. 6
# Description: Immunoblotting (Cell Signalling Methods). Primary rat osteoblasts prepared as described above were seeded in 6-well tissue culture plates at an initial density of 5×10^4 cells/mL in MEM 5% FCS, and grown to 80-90% confluence. After serum starvation overnight, cells were treated at room temperature with test substances in MEM 0.1% BSA. In experiments designed to determine the effect of inhibitors of signal transduction on preptin-induced p42/44 MAP kinase phosphorylation, the cells were pre-treated with the inhibitor for 30 min prior to addition of test substances. The exception was pertussis toxin, which was added 18 h prior to test substances. […] The lysates were briefly vortexed, clarified by centrifugation at 13,000 rpm at 4° C., then stored at −70° C. until analyzed. Protein content of the cell lysates was measured using the DC protein assay (BioRad, Hercules, Calif.). […] Incubation with the HRP-conjugated secondary antibody was for 1 h at room temperature, and the membranes were analyzed by ECL. […] Apoptosis in cultures of primary rat osteoblasts was assessed using the TUNEL method (DeadEnd™, Promega, Madison, Wis.) according to the manufacturer's instructions. […] After counterstaining with hematoxylin, the number of apoptotic nuclei per microscopic field was counted and expressed as a proportion of that observed in the cells exposed to serum starvation throughout the entire treatment period. […]
# [7] = system: isolated, perfused rat pancreas; settings: infusion into isolated, Buchanan et al. 2001; cited from earlier work
# [8] = system: long-term osteoblast cultures; assay: Osteoblast differentiation, mineralized bone nodules in long-term osteoblast cultures; format: cell-based; settings: 10^−8M
# [9] = primary osteoblasts pre-treated with inhibitor, FIG. 5A, 5B
# [10] = high dose, 16.5 micrograms daily for five days, local s.c. injection
molecule,measurement,setting,value
N#CC(=C(/N)Sc1ccccc1N)/C(C#N)=C(\N)Sc1ccccc1N [U-0126],effect of inhibitor pre-treatment on the proliferative effects of preptin,[1],blocked
DVSTSQAVLPDDFPRYPVGKFFKFDTWRQSAGRL (Rattus) [rat preptin],osteoclast development (number of TRAP-positive multinucleated cells),[2],did not affect osteoclast development
COc1cccc(-c2cc(=O)c3ccccc3o2)c1N [PD-98059],effect of inhibitor pre-treatment on the proliferative effects of preptin,[1]; [9],blocked
preptin: 34-amino acid peptide corresponding to Asp69-Leu102 of proinsulin-like growth factor II; species form not always stated,"Bone Area, Mean ± Std Error","[3]; high dose (8.25 μg per injection), P = 0.013 vs control 1.028 ± 0.023",*1.084 ± 0.017
same,"% Mineralizing Surface/Total Bone Surface, Mean ± Std Error","[3]; high dose (8.25 μg per injection), P = 0.046 vs control 1.048 ± 0.013",*1.119 ± 0.032%
same,bone area compared to control (in words),[3]; [10],significant increase; also recorded: increased
same,mineralizing surface compared to control (in words),[3]; [10],significant increase; also recorded: increased
same,"Bone Area, Mean ± Std Error","[3]; low dose (0.825 μg per injection), control 1.028 ± 0.023",1.083 ± 0.027
same,"% Mineralizing Surface/Total Bone Surface, Mean ± Std Error","[3]; low dose (0.825 μg per injection), control 1.048 ± 0.013",1.065 ± 0.033%
same,thymidine incorporation,[4],stimulated
same,bone resorption,[5],did not affect bone resorption
same,"apoptosis, treatment/control ratio",[6],0.78±0.08
same,second phase of insulin secretion,[7],significant increase
same,"osteoblast differentiation, number of mineralized bone nodules",[8],significantly increasing the number of mineralized bone nodules
same,concentrations stimulating proliferation (cell number and DNA synthesis),"[1]; dose-dependent, primary fetal rat osteoblasts and osteoblast-like cell lines, 24 h, FIGS. 1 and 2 (rat and human preptin)",> 10^−11 M
pertussis toxin,effect of inhibitor pre-treatment on the proliferative effects of preptin,[1]; [9],blocked
